Results published in patent US12551451B2, “Compositions and methods for delivering molecules” (SunVax mRNA Therapeutics Inc., priority 2023, dated 2026).

assay: LNP Characteristics (size, PDI, encapsulation efficiency) of LNPs formulated with novel ionizable lipids; type: physicochemical; details: LNP formulated with the ionizable lipid, DOPE, Cholesterol, DMG-PEG2000
Description: LNPs formulated using the novel ionizable lipids of the disclosure or control ionizable lipids MC3 and SM-102 were synthesized by mixing the lipid components of the LNP in ethanol at a predetermined molar ratio (ionizable lipid/DOPE/Cholesterol/DMG-PEG2000=30/15/50/1.5) to prepare an organic phase. Sa-mRNA encoding firefly luciferase (LUC) or green fluorescent protein (GFP) was diluted in 50 mM citrate buffer (pH 4.5, Fisher) to prepare an aqueous phase. The sa-mRNA was stored at −80° C. and was thawed on ice prior to use. The ethanol and aqueous phases were mixed at a 1:3 ratio by pipette with the N/P=4.2/1. The resultant LNPs were purified by ultrafiltration (100,000 cut-off, MilliporeSigma™ Amicon™ Ultra-15 Centrifugal Filter Units) at 4° C. prior to transfection into a cell, such as a T-cell.
LNPs formulated using novel ionizable lipids of the disclosure were synthesized using the procedure described in Example 2 and characterized. Table 4 below show the properties of each LNP formulated using a novel ionizable lipid of the disclosure.

SMILES	Avg. Encapsulation Efficiency (EE) %	Avg. PDI	Avg. Size
CCCCCCCCCCCCCCCCC(=O)N(C(CCCCCCC)CCCCCCC)C(C(=O)NC12CC3CC(CC(C3)C1)C2)C1CCN(CC)CC1 (stereo not drawn) [Lipid P56B1, N-(2-(((1s,3s)-adamantan-1-yl)amino)-1-(1-ethylpiperidin-4-yl)-2-oxoethyl)-N-(pentadecan-8-yl)heptadecanamide]	90.6%	0.10	173.2 nm
CCCCCCCCCCCCCCCCCC(=O)N(C(CCCCCCC)CCCCCCC)C(CC1CCN(C)CC1)C(=O)NC1CCCCC1 (stereo not drawn) [Lipid P30C7, N-(1-(cyclohexylamino)-3-(1-methylpiperidin-4-yl)-1-oxopropan-2-yl)-N-(pentadecan-8-yl)stearamide]	93.9%	0.11	166.8 nm
CCCCCCCCCCCC(=O)N(C(CCCCCCCCCCC)CCCCCCCCCCC)C(CC1CCN(C)CC1)C(=O)NC1CCCCCC1 (stereo not drawn) [Lipid P40C11, N-(1-(cycloheptylamino)-3-(1-methylpiperidin-4-yl)-1-oxopropan-2-yl)-N-(tricosan-12-yl)dodecanamide]	96.6%	0.14	189.3 nm
CCCCCCCCCCCCOC(=O)CCC(=O)N(C(CCCCCCC)CCCCCCC)C(C(=O)NC1CCCCCC1)C1CCN(CC)CC1 (stereo not drawn) [Lipid P153C1, dodecyl 4-((2-(cycloheptylamino)-1-(1-ethylpiperidin-4-yl)-2-oxoethyl)(pentadecan-8-yl)amino)-4-oxobutanoate]	90.1%	0.12	148 nm
CCCCCCCCCCCCCCCC(=O)N(C(CCCCCCC)CCCCCCC)C(C(=O)NC12CC3CC(CC(C3)C1)C2)C1CCN(CC)CC1 (stereo not drawn) [Lipid P56A1, N-(2-(((1s,3s)-adamantan-1-yl)amino)-1-(1-ethylpiperidin-4-yl)-2-oxoethyl)-N-(pentadecan-8-yl)palmitamide]	89.1%	0.12	186.3 nm
CCCCCCCCCCCC(CCCCCCCCCCC)N(C(=O)CCCCCCCCC)C(C(=O)NC(C)(C)C)C1CCN(CC)CC1 (stereo not drawn) [Lipid P53A5, N-(2-(tert-butylamino)-1-(1-ethylpiperidin-4-yl)-2-oxoethyl)-N-(tricosan-12-yl)decanamide]	97.9%	0.10	173.8 nm
CCCCCCCCCCCCC(=O)N(CC(CCCCCCCCCC)CCCCCCCCCCCC)C(CC1CCN(C)CC1)C(=O)NC(C)(C)C (stereo not drawn) [Lipid P51C12, N-(1-(tert-butylamino)-3-(1-methylpiperidin-4-yl)-1-oxopropan-2-yl)-N-(2-decyltetradecyl)tridecanamide]	98.1%	0.26	186.5 nm
CCCCCCCCCCCCCCCC(=O)N(C(CCCCCCC)CCCCCCC)C(C(=O)NC1CCCCC1)C1CCN(CC)CC1 (stereo not drawn) [Lipid P30A1, N-(2-(cyclohexylamino)-1-(1-ethylpiperidin-4-yl)-2-oxoethyl)-N-(pentadecan-8-yl)palmitamide]	97.8%	0.11	176.6 nm
CCCCCCCCCCCCCC(=O)N(C(CCCCCCCC)CCCCCCCC)C(CC1CCN(C)CC1)C(=O)NC1CCCCCC1 (stereo not drawn) [Lipid P38D8, N-(1-(cycloheptylamino)-3-(1-methylpiperidin-4-yl)-1-oxopropan-2-yl)-N-(heptadecan-9-yl)tetradecanamide]	95.4%	0.18	186.9 nm
CCCCCCCCCCCCC(CCCCCCCCCC)CN(C(=O)CCCCCCCCCC)C(C(=O)NC12CC3CC(CC(C3)C1)C2)C1CCN(CC)CC1 (stereo not drawn) [Lipid P54B6, N-(2-(((1s,3s)-adamantan-1-yl)amino)-1-(1-ethylpiperidin-4-yl)-2-oxoethyl)-N-(2-decyltetradecyl)undecanamide]	93.4%	0.10	181.2 nm
CCCCCCCCCN(CCCCCCCCC)CCC(=O)N1CN(C(=O)CCN(CCCCCCCCC)CCCCCCCCC)CN(C(=O)CCN(CCCCCCCCC)CCCCCCCCC)C1 [Lipid E2, 1,1′,1″-(1,3,5-triazinane-1,3,5-triyl)tris(3-(dinonylamino)propan-1-one)]	95.1%	0.1	200 nm
CCCCCCCCCCCCCC(=O)N(CC(CCCCCCCC)CCCCCCCCCC)C(C(=O)NC1CCCCC1)C1CCN(CC)CC1 (stereo not drawn) [Lipid P28D10]	95.5%	0.10	188.0 nm
CCCCCCCCCCCCCC(=O)N(C(CCCCCCC)CCCCCCC)C(CC1CCN(C)CC1)C(=O)NC1CCCCCC1 (stereo not drawn) [Lipid P38D7, N-(1-(cycloheptylamino)-3-(1-methylpiperidin-4-yl)-1-oxopropan-2-yl)-N-(pentadecan-8-yl)tetradecanamide]	94.8%	0.21	236.3 nm
CCCCCCCCCCC(=O)N(CC(CCCCCCCC)CCCCCCCCCC)C(CC1CCN(C)CC1)C(=O)NC1CCCCCC1 (stereo not drawn) [Lipid P40B10, N-(1-(cycloheptylamino)-3-(1-methylpiperidin-4-yl)-1-oxopropan-2-yl)-N-(2-octyldodecyl)undecanamide]	95.8%	0.14	189.9 nm
CCCCCCCC/C=C\CCCCCCCC(=O)N(C(CCCCCCCC)CCCCCCCC)C(C(=O)NC1CCCCCC1)C1CCN(CC)CC1 (stereo not drawn) [Lipid P149A2, N-(2-(cycloheptylamino)-1-(1-ethylpiperidin-4-yl)-2-oxoethyl)-N-(heptadecan-9-yl)oleamide]	92.0%	0.10	218 nm
CCCCCCCCCCC(CCCCCCCC)CN(C(=O)CCC(C)C1CCC2C3CC(O)C4CC(O)CCC4(C)C3CCC12C)C(CC1CCN(C)CC1)C(=O)NC12CC3CC(CC(C3)C1)C2 (stereo not drawn) [Lipid P161F10, N-(1-(((1s,3s)-adamantan-1-yl)amino)-3-(1-methylpiperidin-4-yl)-1-oxopropan-2-yl)-4-(3,6-dihydroxy-10,13-dimethylhexadecahydro-1H-cyclopenta[a]phenanthren-17-yl)-N-(2-octyldodecyl)pentanamide]	87.9%	0.19	225 nm
CCCCCCCCCCCCCCC(=O)N(C(CCCCCCC)CCCCCCC)C(CC1CCN(C)CC1)C(=O)NC1CCCCCC1 (stereo not drawn) [Lipid P40D7, N-(1-(cycloheptylamino)-3-(1-methylpiperidin-4-yl)-1-oxopropan-2-yl)-N-(pentadecan-8-yl)pentadecanamide]	98.2%	0.18	149.2 nm
CCCCCCCCCCCCOC(=O)CCC(=O)N(CC(CCCCCCCC)CCCCCCCCCC)C(C(=O)NC1CCCCCC1)C1CCCN(CC)C1 (stereo not drawn) [Lipid P159C10, dodecyl 4-((2-(cycloheptylamino)-1-(1-ethylpiperidin-3-yl)-2-oxoethyl)(2-octyldodecyl)amino)-4-oxobutanoate]	95.8%	0.13	174 nm
CCCCCC/C=C\CCCCCCCC(=O)N(C(CCCCCCCC)CCCCCCCC)C(C(=O)NC1CCCCCC1)C1CCN(CC)CC1 (stereo not drawn) [Lipid P149C2, (Z)-N-(2-(cycloheptylamino)-1-(1-ethylpiperidin-4-yl)-2-oxoethyl)-N-(heptadecan-9-yl)hexadec-9-enamide]	90.1%	0.15	176 nm
CCCCCCCCCCCCCCCC(=O)N(C(CCCCCCCC)CCCCCCCC)C(C(=O)NC12CC3CC(CC(C3)C1)C2)C1CCN(CC)CC1 (stereo not drawn) [Lipid P56A2, N-(2-(((1s,3s)-adamantan-1-yl)amino)-1-(1-ethylpiperidin-4-yl)-2-oxoethyl)-N-(heptadecan-9-yl)palmitamide]	81.5%	0.15	154.4 nm
CCCCCCCCCCCC(=O)N(CC(CCCCCCCC)CCCCCCCCCC)C(CC1CCN(C)CC1)C(=O)NC1CCCCCC1 (stereo not drawn) [Lipid P40C10, N-(1-(cycloheptylamino)-3-(1-methylpiperidin-4-yl)-1-oxopropan-2-yl)-N-(2-octyldodecyl)dodecanamide]	99.1%	0.25	192.9 nm
CCCCCCCCCCCCC(CCCCCCCCCC)CN(C(=O)CCCCCCCCC)C(C(=O)NC(C)(C)C)C1CCN(CC)CC1 (stereo not drawn) [Lipid P53A6, N-(2-(tert-butylamino)-1-(1-ethylpiperidin-4-yl)-2-oxoethyl)-N-(2-decyltetradecyl)decanamide]	98.3%	0.16	175.6 nm
CCCCCCCCCCCCCCCCC(=O)N(C(CCCCCCC)CCCCCCC)C(CC1CCN(C)CC1)C(=O)NC1CCCCC1 (stereo not drawn) [Lipid P30B7, N-(1-(cyclohexylamino)-3-(1-methylpiperidin-4-yl)-1-oxopropan-2-yl)-N-(pentadecan-8-yl)heptadecanamide]	91.0%	0.10	151.6 nm
CCCCCCCCCCCCOC(=O)CCC(=O)N(C(CCCCCCCCCCC)CCCCCCCCCCC)C(C(=O)NC1CCCCCC1)C1CCN(CC)CC1 (stereo not drawn) [Lipid P153C5, dodecyl 4-((2-(cycloheptylamino)-1-(1-ethylpiperidin-4-yl)-2-oxoethyl)(tricosan-12-yl)amino)-4-oxobutanoate]	62.0%	0.14	169 nm
